Results reported in patent US7417056B2, “5-substituted quinoline and isoquinoline derivatives, a process for their production and their use as anti-inflammatory agents” (Schering AG, priority 2004, dated 2008).

Experiments:
[1] = tested on: tyrosine aminotransferase (TAT); assay: Induction of tyrosine aminotransferase (TAT) in rat hepatoma cells; assay type: cell-based; conditions: for efficiency, induction of TAT: 24 hours, efficiency of dexamethasone = 100%; for EC50: treated for 24 hours
Text: One of the most frequent undesirable actions of a glucocorticoid therapy is the so-called “steroid diabetes” [cf. Hatz, H. J., Glucocorticoide: Immunologische Grundlagen, Pharmakologie und Therapierichtlinien [Glucocorticoids: Immunological Principles, Pharmacology and Therapy Guidelines], Wissenschaftliche Verlagsgesellschaft mbH, Stuttgart, 1998]. The reason for this is the stimulation of gluconeogenesis in the liver by induction of the enzymes that are responsible for this and by free amino acids that are produced from the degradation of proteins (catabolic action of glucocorticoids). A key enzyme of the catabolic metabolism in the liver is the tyrosine aminotransferase (TAT). The activity of this enzyme can be determined photometrically from cell cultures of treated rat hepatoma cells. The cells are treated for 24 hours with the test substances, and then the TAT activity is measured.

[2] = tested on: secretion of the cytokine IL-8, induced by lipopolysaccharide (LPS), in the human monocyte cell line THP-1; assay: Inhibition of LPS-induced IL-8 secretion in THP-1 cells (ELISA); assay type: cell-based; conditions: efficiency of dexamethasone = 100%
Method: The concentration of the cytokines was determined in the supernatant by means of commercially available ELISA kits.

[3] = Skin atrophy in rats (skin fold thickness measurement); assay type: in vivo; conditions: local, daily for 18 days
Method: Another undesirable action that occurs especially after local therapy is the induction of a skin atrophy, which leads to the skin's loss of thickness, elasticity, and ultimately the mechanical resistance of the skin. The potential of a substance to induce skin atrophy can be determined in rats. The animals are treated for 18 days daily and locally in equieffective dosages with the test substances. By means of a skin fold thickness measurement, the reduction of the skin thickness over the treatment time can be tracked.

Cn1ccc2c(NCC(O)(CC(C)(C)c3cc(F)cc4c3OCC4)C(F)(F)F)cccc2c1=O (centres unmarked) [Example 11, 5-[4-(5-Fluoro-2,3-dihydrobenzofuran-7-yl)-2-hydroxy-4-methyl-2-trifluoromethyl-pentylamino]-2-methylisoquinol-1(2H)-one]
efficiency, induction of TAT [1]: 86% | EC50 [1]: 4 nM | efficiency, inhibition of IL-8 secretion [2]: 61%

CCC(=O)O[C@]1(C(=O)CCl)[C@@H](C)C[C@H]2[C@@H]3CCC4=CC(=O)C=C[C@]4(C)[C@@]3(F)[C@@H](O)C[C@@]21C [clobetasol propionate, reference compound]
reduction of the skin thickness ([3]; concentration 0.01% (maximum anti-inflammatory action is achieved)): 65%

C[C@]12C=CC(=O)C=C1CC[C@@H]1[C@@H]2[C@@H](O)C[C@@]2(C)[C@H]1CC[C@]2(O)C(=O)CO [prednisolone, reference compound]
efficiency, inhibition of IL-8 secretion [2]: 96%

Cc1ccc2c(NCC(O)(CC(C)(C)c3cc(F)cc4c3OCC4)C(F)(F)F)ccc(F)c2n1 (centres unmarked) [Example 10, 8-Fluoro-5-[4-(5-Fluoro-2,3-dihydrobenzofuran-7-yl)-2-hydroxy-4-methyl-2-trifluoromethyl-pentylamino]-2-methylquinoline]
efficiency, induction of TAT [1]: 92% | EC50 [1]: 10 nM | efficiency, inhibition of IL-8 secretion [2]: 86%

Cc1ccc2c(NCC(O)(CC(C)(C)c3cc(F)cc4c3OCC4)C(F)(F)F)cccc2n1 (centres unmarked) [Example 1, 5-[4-(5-Fluoro-2,3-dihydrobenzofuran-7-yl)-2-hydroxy-4-methyl-2-trifluoromethyl-pentylamino]-2-methylquinoline]
reduction of the skin thickness ([3]; concentration 0.1% (maximum anti-inflammatory action is achieved)): 41% | efficiency, induction of TAT [1]: 93% | efficiency, inhibition of IL-8 secretion [2]: 74%
